Source: PMC7351026, “Serum Half-Lives for Short- and Long-Chain Perfluoroalkyl Acids after Ceasing Exposure from Drinking Water Contaminated by Firefighting Foam” (Environmental Health Perspectives, 2020)
Where “and” joins values, the source holds several entries; their conditions need not be identical. Equal values may be shown once. Read-outs that look alike come from different tables or passages of the source.

Key:
[1] = Urine/serum ratio in paired samples; format: in vivo, human; details: mean of four paired samplings per subject, 17 airport employees
Experimental: Urinary PFAS concentrations were specific-gravity adjusted. The ratio of urine and serum concentration for each PFAS (urine/serum ratio) at each sampling was calculated based on PFAS concentrations in paired serum and urine samples from 17 employees. Then the personal average urine/serum ratio was calculated using the mean value of repeated samplings for each employee.

[2] = Background serum PFAS levels in reference population from Karlshamn; format: in vivo, human; details: human, serum; reference group from Karlshamn without PFAS contamination in drinking water, N=58, sampled 2016; read-out: PFAS serum level, median (range)
From the text: For comparison with Swedish general background PFAS serum levels, we referred to the PFAS levels observed in a reference population from Karlshamn, a municipality in southern Sweden without PFAS contamination in the municipal drinking water. In 2016, 226 individuals were sampled. Fifty-nine individuals were randomly selected for analyzing other short-chain PFAS than the legacy ones, using the same modified method as for the airport employees. Fifty-eight individuals within the same age range as the airport employees (i.e., >22 years of age ) were included in the comparison. For a detailed description of this population see Li et al. ([2018]).

[3] = Population average serum elimination rate and half-life (linear mixed model, one compartment, first-order); details: for half-life: human, serum, oral, Half-life (95% CI)
Outline: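 Log-transformed serum PFAS fitted with a linear mixed model (random intercept only; age and sex as covariates), assuming one-compartment first-order elimination. Time counted in days from clean-water supply to first sampling. k is the negative average slope; half-life = ln2/k; sensitivity run after subtracting reference-population median background.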

[4] = PFAS levels in urine samples of airport employees, specific-gravity adjusted (LC/MS/MS); format: in vivo, human
Outline: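 50 μL urine mixed with methanol and acetonitrile containing isotope-labelled internal standards, shaken 30 min, centrifuged, then analysed by LC/MS/MS in negative ion mode. Concentrations specific-gravity adjusted; urine/serum ratios from paired samples of 17 employees, averaged over repeated samplings per employee.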

[5] = Serum/water ratio; format: in vivo, human; details: median serum level of first samples (26 employees) divided by airport drinking-water level
Experimental: The ratio of serum and water concentration for each PFAS (serum/water ratio) was calculated based on median serum level in the first serum sample obtained from all 26 airport employees divided by the drinking-water concentration. This ratio is an indicator of PFAS accumulation in body.

[6] = cited from earlier work
[7] = Individual serum elimination rate and half-life (linear regression per employee); details: individual estimate; for half-life: human, serum, oral, HL (half-life)
Outline: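 One-compartment, first-order model: for each employee and PFAS, the slope β of log serum concentration versus elapsed days (from clean water supply, over five samplings) gave k = −β and half-life = ln2/k. A positive slope left the half-life undetermined.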

[8] = population average, model with original serum levels, age and sex as covariates
[9] = population average, model with serum levels after subtraction of background exposure (sensitivity analysis)
[10] = 2nd sampling (October 2018), count 17
[11] = 3rd sampling (November, 2018), count 16
[12] = 4th sampling (December 2018), count 14
[13] = 5th sampling (January 2019), count 12

O=C(O)C(F)(F)C(F)(F)C(F)(F)C(F)(F)C(F)(F)C(F)(F)C(F)(F)F [PFOA, perfluorooctanoic acid]
Personal average urine/serum ratio, median (range) [1]: 0.0032 and 0.0032 (0.00066–0.0067)
concentration at 2016 calendar year of sampling [2]: 1.5 ng/mL
half-life [3, 8]: 646 days
half-life [3, 9]: 541 days
Average serum half-life ([3]; population average, linear mixed model with original serum levels, 17 airport employees after end of drinking-water exposure): 1.77 y
Constant elimination rate (95% CI) [3, 8]: 0.39 (0.3, 0.49) yearly
Constant elimination rate (95% CI) [3, 9]: 0.47 (0.35, 0.58) yearly
Reduction of half-life estimation after subtraction of background levels ([3]; sensitivity analysis vs model with original serum levels): 16%
Specific gravity adjusted urinary level, 25 percentile [4, 10]: 0.02 ng/mL
Specific gravity adjusted urinary level, 75 percentile [4, 10]: 0.04 ng/mL
Specific gravity adjusted urinary level, Max [4, 10]: 0.07 ng/mL
Specific gravity adjusted urinary level, Median [4, 10]: 0.03 ng/mL
Specific gravity adjusted urinary level, Min [4, 10]: 0.01 ng/mL
Specific gravity adjusted urinary level, 25 percentile [4, 11]: 0.02 ng/mL
Specific gravity adjusted urinary level, 75 percentile [4, 11]: 0.04 ng/mL
Specific gravity adjusted urinary level, Max [4, 11]: 0.07 ng/mL
Specific gravity adjusted urinary level, Median [4, 11]: 0.03 ng/mL
Specific gravity adjusted urinary level, Min [4, 11]: 0.01 ng/mL
Specific gravity adjusted urinary level, 25 percentile [4, 12]: 0.02 ng/mL
Specific gravity adjusted urinary level, 75 percentile [4, 12]: 0.05 ng/mL
Specific gravity adjusted urinary level, Max [4, 12]: 0.13 ng/mL
Specific gravity adjusted urinary level, Median [4, 12]: 0.04 ng/mL
Specific gravity adjusted urinary level, Min [4, 12]: 0.01 ng/mL
Specific gravity adjusted urinary level, 25 percentile [4, 13]: 0.03 ng/mL
Specific gravity adjusted urinary level, 75 percentile [4, 13]: 0.04 ng/mL
Specific gravity adjusted urinary level, Max [4, 13]: 0.07 ng/mL
Specific gravity adjusted urinary level, Median [4, 13]: 0.03 ng/mL
Specific gravity adjusted urinary level, Min [4, 13]: 0.02 ng/mL
Specific gravity adjusted urine level, median (range) ([4]; second to fifth samplings, 17 airport employees): 0.031 (0.010–0.13) ng/mL
Serum/water ratio [5]: 30.3
Average half-life ([6]; 26 retired fluorochemical production workers, 5-y follow-up, ref Olsen et al. 2007): 3.8 y
half-life ([6]; 138 Germans, 2-y follow-up, ref Brede et al. 2010): 3.3 y
half-life ([6]; 200 Americans, 1-y follow-up, ref Bartell et al. 2010): 2.3 y
Average half-life ([6]; general Swedish population (Ronneby, 106 Swedes) with high exposure through drinking water, 2 y follow-up from 6 months after clean water, ref Li et al. 2018): 2.7 y
half-life ([7]; subject 1, 5 samples): 877 days
half-life ([7]; subject 2, 5 samples): 1060 days
half-life ([7]; subject 3, 5 samples): 438 days
half-life ([7]; subject 4, 5 samples): 840 days
half-life ([7]; subject 5, 5 samples): 804 days
half-life ([7]; subject 6, 4 samples): 1060 days
half-life ([7]; subject 7, 5 samples): 584 days
half-life ([7]; subject 9, 5 samples): 694 days
half-life ([7]; subject 10, 5 samples): 767 days
half-life ([7]; subject 11, 5 samples): 548 days
half-life ([7]; subject 12, 5 samples): 365 days
half-life ([7]; subject 13, 5 samples): 584 days
half-life ([7]; subject 14, 4 samples): 584 days
half-life ([7]; subject 15, 5 samples): 402 days
half-life ([7]; subject 16, 5 samples): 986 days
half-life ([7]; subject 17, 5 samples): 438 days
Elimination rate ([7]; subject 1, 5 samples): 0.3 yearly
Elimination rate ([7]; subject 2, 5 samples): 0.2 yearly
Elimination rate ([7]; subject 3, 5 samples): 0.6 yearly
Elimination rate ([7]; subject 4, 5 samples): 0.3 yearly
Elimination rate ([7]; subject 5, 5 samples): 0.3 yearly
Elimination rate ([7]; subject 6, 4 samples): 0.2 yearly
Elimination rate ([7]; subject 7, 5 samples): 0.4 yearly
Elimination rate ([7]; subject 8, 5 samples): 0.007 yearly
Elimination rate ([7]; subject 9, 5 samples): 0.4 yearly
Elimination rate ([7]; subject 10, 5 samples): 0.3 yearly
Elimination rate ([7]; subject 11, 5 samples): 0.5 yearly
Elimination rate ([7]; subject 12, 5 samples): 0.7 yearly
Elimination rate ([7]; subject 13, 5 samples): 0.4 yearly
Elimination rate ([7]; subject 14, 4 samples): 0.4 yearly
Elimination rate ([7]; subject 15, 5 samples): 0.6 yearly
Elimination rate ([7]; subject 16, 5 samples): 0.3 yearly
Elimination rate ([7]; subject 17, 5 samples): 0.6 yearly
